Blank lines part the entries; values can stand above or below the molecule they belong to.
What was measured:
[1] = target: T1, human sweet taste receptor (hT1R2+hT1R3) (Homo sapiens, UniProt Q7RTX0+Q8TE23); assay: Automated fluorescent calcium imaging (Fluo-4 AM, FlexStation 3) of cultured cell strain (A); type: cell-based; design: The sweet taste receptor subunits T1R2 and T1R3 include an entire part of each subunit
T1 sequence (Q8TE23 20-839): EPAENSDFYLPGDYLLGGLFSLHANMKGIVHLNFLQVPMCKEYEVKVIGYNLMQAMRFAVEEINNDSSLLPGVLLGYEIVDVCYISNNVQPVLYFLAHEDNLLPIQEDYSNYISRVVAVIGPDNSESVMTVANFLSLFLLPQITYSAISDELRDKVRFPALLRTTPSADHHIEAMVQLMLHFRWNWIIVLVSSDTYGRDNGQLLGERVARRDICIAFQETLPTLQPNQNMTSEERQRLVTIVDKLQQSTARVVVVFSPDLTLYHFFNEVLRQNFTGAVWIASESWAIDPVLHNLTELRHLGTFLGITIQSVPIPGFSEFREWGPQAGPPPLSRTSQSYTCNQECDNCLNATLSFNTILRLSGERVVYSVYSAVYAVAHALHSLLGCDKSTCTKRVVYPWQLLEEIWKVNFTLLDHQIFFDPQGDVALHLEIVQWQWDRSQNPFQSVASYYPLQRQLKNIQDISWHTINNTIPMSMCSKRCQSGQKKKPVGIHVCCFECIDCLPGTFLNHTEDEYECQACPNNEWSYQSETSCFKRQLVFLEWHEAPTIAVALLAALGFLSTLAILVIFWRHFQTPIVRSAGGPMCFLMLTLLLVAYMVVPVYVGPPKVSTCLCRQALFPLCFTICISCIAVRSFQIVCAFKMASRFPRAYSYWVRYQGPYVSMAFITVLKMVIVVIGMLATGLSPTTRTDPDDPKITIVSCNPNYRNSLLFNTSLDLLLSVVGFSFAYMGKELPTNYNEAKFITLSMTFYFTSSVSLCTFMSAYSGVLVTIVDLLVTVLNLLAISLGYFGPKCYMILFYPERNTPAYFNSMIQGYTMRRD
T1 sequence (Q7RTX0 21-852): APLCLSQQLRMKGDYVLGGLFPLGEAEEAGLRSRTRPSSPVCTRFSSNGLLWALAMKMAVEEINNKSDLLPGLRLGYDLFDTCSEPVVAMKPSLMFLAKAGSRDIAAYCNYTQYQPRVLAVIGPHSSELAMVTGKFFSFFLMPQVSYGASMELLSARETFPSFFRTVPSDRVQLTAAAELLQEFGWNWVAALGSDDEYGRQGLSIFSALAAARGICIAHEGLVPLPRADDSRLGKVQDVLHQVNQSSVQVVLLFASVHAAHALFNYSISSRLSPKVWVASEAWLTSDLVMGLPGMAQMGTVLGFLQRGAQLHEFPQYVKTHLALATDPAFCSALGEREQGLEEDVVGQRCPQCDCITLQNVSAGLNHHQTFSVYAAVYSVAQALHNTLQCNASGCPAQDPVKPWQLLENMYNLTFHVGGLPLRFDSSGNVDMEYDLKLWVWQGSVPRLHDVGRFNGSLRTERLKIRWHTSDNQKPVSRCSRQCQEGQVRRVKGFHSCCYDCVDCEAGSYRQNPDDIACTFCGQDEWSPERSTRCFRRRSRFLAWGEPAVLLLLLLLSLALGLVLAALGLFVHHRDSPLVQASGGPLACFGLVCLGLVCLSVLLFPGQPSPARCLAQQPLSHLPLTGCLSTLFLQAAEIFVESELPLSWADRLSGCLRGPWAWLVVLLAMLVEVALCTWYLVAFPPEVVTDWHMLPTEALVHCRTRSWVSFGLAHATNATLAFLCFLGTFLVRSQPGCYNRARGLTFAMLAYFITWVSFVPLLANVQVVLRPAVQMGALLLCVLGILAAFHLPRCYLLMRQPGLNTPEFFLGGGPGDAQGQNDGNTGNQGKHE
Protocol: Automated fluorescent imaging using FlexStation 3 (Molecular Devices) can be performed, for example, according to the following procedure.
First, cells are suspended in a low glucose ([…]) DMEM medium from which hygromycin B has been removed, and each 70 to 80 thousands of cells are seeded on each well of a 96-well plate (Corning, CellBIND Surface).
Then, after cultured at 37° C. for 24 hours, a medium is removed and replaced with a suitable amount of a HEPES (2-[4-(2-hydroxyethyl)-1-piperazinyl]ethanesulfonic acid) buffer, and a HEPES buffer containing a fluorescent calcium indicator (Fluo-4 AM attached to Molecular Devices, FLIPR Ca 4 Assay Kit) is further added. In order to facilitate transfer into cells, a fat-soluble acetoxymethyl group has been introduced into the fluorescent indicator Fluo-4 (excitation wavelength: 495 nm, fluorescent wavelength: 518 nm), and when it is added to a medium, it is easily taken into cells, and is hydrolyzed with an esterase in cells. Hydrolyzed Fluo-4 becomes difficult to be permeated through a cell membrane, and is diffused into cells to form a complex with calcium, emitting intense fluorescence. In a 96-well plate for fluorescent observation, there are a plastic bottom and a film bottom. Since a plate of the plastic bottom is satisfactory in adherability and growth of cells, it is used at a simultaneous assay using a multiplate reader for observing an entire well. However, since a plate of this plastic bottom is bad in transmission property of a UV wavelength, and inhibits transmission of excited light of Fura-2, Fluo-4 is used.
Then, after incubated at 27 to 37° C. for 30 to 60 minutes, by adding thereto a sweet taste substance at a particular concentration or a solution of a sweet taste substance and a substance to be tested, taste stimulation is performed at 27 to 37° C.
A physiological response of the cultured cell strain (A) to sucrose stimulation was analyzed by automated fluorescent imaging.
The cultured cell strain (A) prepared in Example 4 was trypsinized, and suspended in the DMEM medium, a cell density was measured, and each about 80 thousand cells were seeded on each well of a 96-well plate (Corning, CellBIND Surface).
After cultured at 37° C. for 24 hours, the medium was removed and replaced with 50 μl of a HEPES buffer, and 50 μl of a HEPES buffer containing a fluorescent calcium indicator (Fluo-4 AM attached to Molecular Devices, FLIPR Ca 4 Assay Kit) was further added. Then, this was incubated at 27° C. for 45 minutes to prepare cells to be subjected to automated fluorescent imaging.
Then, to the cells was added a HEPES buffer containing sucrose, so that a final concentration of sucrose became a concentration described in Table 1, and sucrose stimulation was performed at 27° C.
The vertical axis of FIG. 15 is a maximum of change (AF) in a fluorescent intensity between immediately after stimulation and 100 seconds after stimulation, that is, a response intensity of cells, and the horizontal axis indicates a sucrose concentration (mM) expressed by logarithm.
A physiological response of the cultured cell strain (A) to D-phenylalanine stimulation was analyzed by automated fluorescent imaging.

[2] = target: T1, human sweet taste receptor (hT1R2+hT1R3); assay: as above; type: cell-based; design: The sweet taste receptor subunits T1R2 and T1R3 include an entire part of each subunit; remark: listed apart in the source
[3] = target: T1, human sweet taste receptor (hT1R2+hT1R3); assay: Fluorescent microscope calcium imaging (Fura-2 AM) of cultured cell strains (A) to (C); details: cultured cell strain (A); Sucrose in a range of 20 mM to 1 M; FIG. 13
Protocol: Fluorescent calcium imaging using a fluorescent microscope can be performed according to the following procedure.
First, cells are suspended in a low glucose (1,000 mg/ml) DMEM medium, from which hygromycin B has been removed, and each 40 to 80 thousands cells are seeded on each well of a 96-well plate (Greiner, Lumox).
Then, after cultured at 37° C. for 24 to 48 hours, a medium is removed and is replaced with a suitable amount of a HEPES buffer, and a HEPES buffer containing a fluorescent calcium indicator (Fura-2 AM) is further added.
After incubated at 27 to 37° C. for 30 to 60 minutes, an extracellular fluorescent indicator is removed, and this is finally replaced with a suitable amount of a HEPES buffer, and is allowed to stand at room temperature for 10 to 20 minutes. By adding thereto a sweet taste substance at a particular concentration or a solution of a sweet taste substance and a substance to be tested, taste stimulation is performed at room temperature. In the fluorescent indicator Fura-2 (excitation wavelength: 340 nm/380 nm, fluorescent wavelength: 510 nm), a fluorescent intensity of excitation at 340 nm is increased, and a fluorescent intensity of excitation at 380 nm is reduced, when a calcium ion concentration is increased.
Cells loaded with Fura-2 AM were excited at 340 nm and 380 nm, and a fluorescent image observed at 510 nm was taken using a fluorescent microscope and a CCD camera. While the image was taken, Aspartame at a final concentration of 10 mM was administered to cells and, thereafter, the image was continuously taken. From the field of the taken image, 100 cells were randomly selected, and the response cell number was counted.
Cells loaded with Fura-2 AM were excited at 340 nm and 380 nm, and a fluorescent image observed at 510 nm was taken using a fluorescent microscope and a CCD camera. While the image was taken, Aspartame at each final concentration of 0.1 mM, 0.5 mM, 1 mM, 2 mM and 5 mM was administered to cells and then the image was continuously taken.
Cells loaded with Fura-2 AM were excited at 340 nm and 380 nm, and a fluorescent image observed at 510 nm was taken by using a fluorescent microscope and a CCD camera. While the image was taken, Sucrose at each final concentration of 20 mM, 50 mM, 100 mM, 200 mM, 500 mM and 1 M was administered to cells and then the image was continuously taken.
Cells loaded with Fura-2 AM were excited at 340 nm and 380 nm, and a fluorescent image observed at 510 nm was taken by using a fluorescent microscope and a CCD camera. While the image was taken, sucrose at final concentration of 500 mM was administered to cells and then the image was continuously taken.

Change amount of fluorescent intensity (ΔF) ([1]; D-phenylalanine 1.5 mM, Average ± S.E., n = 2): 4.0 ± 0.8
Change amount of fluorescent intensity (ΔF) ([1]; D-phenylalanine 2.2 mM, Average ± S.E., n = 2): 4.8 ± 0.6
Change amount of fluorescent intensity (ΔF) ([1]; D-phenylalanine 3.3 mM, Average ± S.E., n = 2): 4.5 ± 0.6
Change amount of fluorescent intensity (ΔF) ([1]; D-phenylalanine 4.9 mM, Average ± S.E., n = 2): 5.4 ± 0.3
Change amount of fluorescent intensity (ΔF) ([1]; D-phenylalanine 7.4 mM, Average ± S.E., n = 2): 8.1 ± 0.7
Change amount of fluorescent intensity (ΔF) ([1]; D-phenylalanine 11.1 mM, Average ± S.E., n = 2): 12.1 ± 0.2
Change amount of fluorescent intensity (ΔF) ([1]; D-phenylalanine 16.7 mM, Average ± S.E., n = 2): 18.2 ± 0.9
Change amount of fluorescent intensity (ΔF) ([1]; D-phenylalanine 25 mM, Average ± S.E., n = 2): 25.2 ± 1.2
SMILES: N[C@H](Cc1ccccc1)C(=O)O [D-phenylalanine]

Change amount of fluorescent intensity (ΔF) ([2]; NHDC 0.03 mM): 9.6
Change amount of fluorescent intensity (ΔF) ([2]; NHDC 0.1 mM): 20.9
Change amount of fluorescent intensity (ΔF) ([2]; NHDC 0.3 mM): 26.7
Change amount of fluorescent intensity (ΔF) ([2]; NHDC 1 mM): 41.8
Change amount of fluorescent intensity (ΔF) ([2]; NHDC 3 mM): 66.8
Change amount of fluorescent intensity (ΔF) ([2]; NHDC 10 mM): 78.6
Change amount of fluorescent intensity (ΔF) ([1]; NHDC 0.003 mM): 5.8
Change amount of fluorescent intensity (ΔF) ([1]; NHDC 0.01 mM): 11.2
SMILES: COc1ccc(CCC(=O)c2c(O)cc(O[C@@H]3O[C@H](CO)[C@@H](O)[C@H](O)[C@H]3O[C@@H]3O[C@@H](C)[C@H](O)[C@@H](O)[C@H]3O)cc2O)cc1O [NHDC, neohesperidin dihydrochalcone]

Change amount of fluorescent intensity (ΔF) ([1]; sucrose 3.1 mM, Average ± S.E., n = 6): 10.8 ± 2.0
Change amount of fluorescent intensity (ΔF) ([1]; sucrose 6.3 mM, Average ± S.E., n = 6): 13.8 ± 2.9
Change amount of fluorescent intensity (ΔF) ([1]; sucrose 12.5 mM, Average ± S.E., n = 6): 14.9 ± 2.7
Change amount of fluorescent intensity (ΔF) ([1]; sucrose 25 mM, Average ± S.E., n = 6): 17.0 ± 2.6
Change amount of fluorescent intensity (ΔF) ([1]; sucrose 50 mM, Average ± S.E., n = 6): 29.2 ± 2.3
Change amount of fluorescent intensity (ΔF) ([1]; sucrose 100 mM, Average ± S.E., n = 6): 40.4 ± 2.5
Change amount of fluorescent intensity (ΔF) ([1]; sucrose 200 mM, Average ± S.E., n = 6): 35.4 ± 3.2
SMILES: OC[C@H]1O[C@@](CO)(O[C@H]2O[C@H](CO)[C@@H](O)[C@H](O)[C@H]2O)[C@@H](O)[C@@H]1O [Sucrose, sucrose]
sweet taste response (fluorescent images) [3]: concentration-dependent sweet taste response was observed

Change amount of fluorescent intensity (ΔF) ([1]; saccharin 0.04 mM, Average ± S.E., n = 2): 4.0 ± 0.8
Change amount of fluorescent intensity (ΔF) ([1]; saccharin 0.08 mM, Average ± S.E., n = 2): 8.0 ± 0.6
Change amount of fluorescent intensity (ΔF) ([1]; saccharin 0.16 mM, Average ± S.E., n = 2): 11.1 ± 1.3
Change amount of fluorescent intensity (ΔF) ([1]; saccharin 0.31 mM, Average ± S.E., n = 2): 18.7 ± 2.4
Change amount of fluorescent intensity (ΔF) ([1]; saccharin 0.63 mM, Average ± S.E., n = 2): 26.1 ± 4.0
Change amount of fluorescent intensity (ΔF) ([1]; saccharin 1.25 mM, Average ± S.E., n = 2): 25.7 ± 1.1
Change amount of fluorescent intensity (ΔF) ([1]; saccharin 2.50 mM, Average ± S.E., n = 2): 25.6 ± 0.2
Change amount of fluorescent intensity (ΔF) ([1]; saccharin 5 mM, Average ± S.E., n = 2): 21.8 ± 1.2
SMILES: O=C1NS(=O)(=O)c2ccccc21 [saccharin]
